Measured values published in ChEMBL document CHEMBL3991946, “Linked Myc-max small molecule inhibitors” (2014).
The source made the active and inactive calls. The rule behind the calls is not given here.

Key:
[1] = target: T1, Myc proto-oncogene protein (Homo sapiens, UniProt P01106); assay: Binding affinity to recombinant full-length N-terminal hexahistidine-tagged c-Myc (353 to 437 residues) bHLH-ZIP domain (unknown origin) expressed in Escherichia coli BL21 DE3 (pLysS) by fluorescence polarization assay
HL-60 = assay: Cytotoxicity against human HL60 cells expressing c-Myc assessed as growth inhibition after 4 to 5 days by MTT assay; assay type: functional, cell-based
Daudi = assay: Cytotoxicity against human Daudi Burkitt lymphoma cells expressing c-Myc assessed as growth inhibition after 4 to 5 days by MTT assay; assay type: functional, cell-based
[2] = target: T2, c-Myc/c-Max (Homo sapiens) (UniProt P01106+P61244); assay: Inhibition of recombinant c-Myc/Max (unknown origin) expressed in human HL60 cells assessed as disruption of c-Myc/Max association after 6 hrs by co-immunoprecipitation assay; assay type: cell-based
[3] = target: T2, c-Myc/c-Max (Homo sapiens); assay: Inhibition of recombinant c-Myc/Max (unknown origin) expressed in human HL60 cells assessed as disruption of c-Myc/Max association after 16 hrs by co-immunoprecipitation assay; assay type: cell-based
[4] = Metabolic stability of the compound
[5] = target: Protein max (Homo sapiens) (UniProt P61244); assay: Binding affinity to human hexahistidine-tagged Max p21 bHLH-ZIP domain expressed in Escherichia coli M15 (pRep4) at 10 uM by fluorescence polarization assay
[6] = target: T1, Myc proto-oncogene protein; assay: Binding affinity to recombinant full-length N-terminal hexahistidine-tagged c-Myc (353 to 437 residues) bHLH-ZIP domain (unknown origin) expressed in Escherichia coli BL21 DE3 (pLysS) assessed as changes in shape or intensity of CD spectrum at 5 uM by circular dichroism assay
c-Myc/Max (Homo sapiens) [7] = target: T3, c-Myc/Max (Homo sapiens) (UniProt P01106+P61244); assay: (§1) Inhibition of recombinant full-length N-terminal hexahistidine-tagged c-Myc (353 to 437 residues) bHLH-ZIP domain (unknown origin) expressed in Escherichia coli BL21 DE3 (pLysS)/human hexahistidine-tagged Max p21 expressed in Escherichia coli M15 (pRep4) assessed as disruption of E-Box DNA binding preincubated for 30 mins with c-Myc followed by Max p21 and E-box element addition measured after 15 mins by electrophoretic mobility shift assay
[8] = Cytotoxicity against non-transformed rat TGR1 assessed as growth inhibition after 4 to 5 days by MTT assay; assay type: cell-based
[9] = Cytotoxicity against c-Myc null rat TGR1 reconstituted with HMGA1b or MT-MC1 assessed as growth inhibition after 4 to 5 days by MTT assay; assay type: cell-based
[10] = target: T1, Myc proto-oncogene protein; assay: Binding affinity to recombinant full-length N-terminal hexahistidine-tagged c-Myc (353 to 437 residues) bHLH-ZIP domain (unknown origin) expressed in Escherichia coli BL21 DE3 (pLysS) assessed as changes in alpha1H signals of Phe 374 to 375 and Tyr 402 residues at 500 uM by NMR spectroscopy
[11] = target: T1, Myc proto-oncogene protein; assay: Binding affinity to recombinant full-length N-terminal hexahistidine-tagged c-Myc (353 to 437 residues) bHLH-ZIP domain (unknown origin) expressed in Escherichia coli BL21 DE3 (pLysS) assessed as changes in COSY spectra in alpha1H region at 500 uM by NMR spectroscopy
[12] = target: T1, Myc proto-oncogene protein; assay: Binding affinity to recombinant full-length N-terminal hexahistidine-tagged c-Myc (353 to 437 residues) bHLH-ZIP domain (unknown origin) expressed in Escherichia coli BL21 DE3 (pLysS) assessed as changes in NOESY spectra at 500 uM by NMR spectroscopy
[13] = target: T1, Myc proto-oncogene protein; assay: Binding affinity to recombinant full-length N-terminal hexahistidine-tagged c-Myc (353 to 437 residues) bHLH-ZIP domain (unknown origin) expressed in Escherichia coli BL21 DE3 (pLysS) assessed as changes in alpha1H signals of Tyr 402 residues at 500 uM by NMR spectroscopy
c-Myc/Max (Homo sapiens) [14] = target: T3, c-Myc/Max (Homo sapiens); assay: as §1, with “binding at 25 to 50 nM” for “binding”, “element” for “element addition”
[15] = target: T1, Myc proto-oncogene protein; assay: Binding affinity to recombinant truncated N-terminal hexahistidine-tagged c-Myc (363 to 381 residues) bHLH-ZIP domain (unknown origin) expressed in Escherichia coli BL21 DE3 (pLysS) by fluorescence polarization assay
[16] = target: T1, Myc proto-oncogene protein; assay: Binding affinity to recombinant truncated N-terminal hexahistidine-tagged c-Myc (400 to 439 residues) bHLH-ZIP domain (unknown origin) expressed in Escherichia coli BL21 DE3 (pLysS) by fluorescence polarization assay
[17] = target: T1, Myc proto-oncogene protein; assay: Displacement of 10058-F4 from recombinant full-length N-terminal hexahistidine-tagged c-Myc (353 to 437 residues) bHLH-ZIP domain (unknown origin) expressed in Escherichia coli BL21 DE3 (pLysS) by fluorescence polarization assay

Chain of Protein max (Homo sapiens) (P61244 whole entry, the tested form may be a part): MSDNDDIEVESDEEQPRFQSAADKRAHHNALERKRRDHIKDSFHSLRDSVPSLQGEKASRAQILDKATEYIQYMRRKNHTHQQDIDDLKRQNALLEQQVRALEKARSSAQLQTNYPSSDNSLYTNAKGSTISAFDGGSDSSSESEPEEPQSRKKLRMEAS
T1 sequence (P01106 whole entry, the tested form may be a part): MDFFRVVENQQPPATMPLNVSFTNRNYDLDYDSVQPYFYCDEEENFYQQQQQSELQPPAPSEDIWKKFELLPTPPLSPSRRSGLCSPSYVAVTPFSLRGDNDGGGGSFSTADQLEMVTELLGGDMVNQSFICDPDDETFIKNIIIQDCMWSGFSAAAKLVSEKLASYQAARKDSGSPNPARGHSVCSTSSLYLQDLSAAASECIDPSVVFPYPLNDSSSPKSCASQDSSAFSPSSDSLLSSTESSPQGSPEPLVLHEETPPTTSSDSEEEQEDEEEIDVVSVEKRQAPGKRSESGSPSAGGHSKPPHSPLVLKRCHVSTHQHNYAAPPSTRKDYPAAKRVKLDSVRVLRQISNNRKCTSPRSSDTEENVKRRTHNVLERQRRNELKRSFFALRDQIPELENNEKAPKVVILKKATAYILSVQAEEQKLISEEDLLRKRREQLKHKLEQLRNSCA
T2 sequence (P01106 whole entry): as the sequence (P01106 whole entry, the tested form may be a part) above
T2 sequence (P61244 2-160 partner limits assumed): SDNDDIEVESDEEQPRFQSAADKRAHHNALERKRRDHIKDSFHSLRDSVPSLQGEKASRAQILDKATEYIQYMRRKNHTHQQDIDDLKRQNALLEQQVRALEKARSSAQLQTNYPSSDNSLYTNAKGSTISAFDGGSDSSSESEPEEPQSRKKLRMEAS

CCc1ccc(/C=C2\SC(=O)N(CCCCNC(=O)c3ccccc3Nc3ccc([N+](=O)[O-])c4nonc34)C2=O)cc1
Kd [1]: 3 nM
IC50 (HL-60): 2 to 6 µM
IC50 (Daudi): 2 to 2.5 µM
inhibition [2]: Dose-dependent effect
inhibition [3]: inactive
Stability [4]: Unstable

O=C1NC(=S)S/C1=C/c1ccc(C(=O)NCCCCCNC(=O)c2ccc(Nc3ccc([N+](=O)[O-])c4nonc34)cc2)cc1
Activity [5]: inactive
Activity [6]: inactive
inhibition (c-Myc/Max (Homo sapiens) [7]): Active
growth inhibition (GI) [8]: Non-Toxic
growth inhibition (GI) [9]: Non-Toxic

CCc1ccc(/C=C2\SC(=O)N(CCCCNC(=O)c3ccc(Nc4ccc([N+](=O)[O-])c5nonc45)cc3)C2=O)cc1
growth inhibition (GI) [8]: Non-Toxic
growth inhibition (GI) [9]: Non-Toxic
Stability [4]: Unstable

O=C(NCCCCCCN1C(=O)S/C(=C\c2ccc(F)cc2)C1=O)c1ccc(Nc2ccc([N+](=O)[O-])c3nonc23)cc1
Kd [1]: 1.7 nM
IC50 (HL-60): 3 to 4 µM
IC50 (Daudi): 1.2 µM
inhibition [2]: Dose-dependent effect
inhibition [3]: inactive
Stability [4]: Unstable

O=C(NCCCCCCN1C(=O)S/C(=C\c2ccc(F)cc2)C1=O)c1ccccc1Nc1ccc([N+](=O)[O-])c2nonc12
Kd [1]: 4.6 nM
IC50 (HL-60): 3 to 3.5 µM
IC50 (Daudi): 6 to 8 µM

O=C(CCCCCNC(=O)c1ccc(Nc2ccc([N+](=O)[O-])c3nonc23)cc1)NCCCCCNC(=O)c1ccc(/C=C2\SC(=S)NC2=O)cc1
Kd [1]: 55 nM

CCc1ccc(/C=C2\SC(=O)N(CCCCCNC(=O)c3ccc(Nc4ccc([N+](=O)[O-])c5nonc45)cc3)C2=O)cc1
Kd [1]: 0.6 nM
Activity [5]: inactive
Activity [6]: inactive
inhibition [10]: Active
inhibition [11]: Active
Activity [12]: Active
inhibition (c-Myc/Max (Homo sapiens) [7]): Active
IC50 (HL-60): 7 to 9 µM
IC50 (Daudi): 2 to 4 µM
growth inhibition (GI) [8]: Non-Toxic
growth inhibition (GI) [9]: Non-Toxic

CCc1ccc(/C=C2\SC(=S)NC2=O)cc1
inhibition [13]: Active
inhibition [11]: Active
inhibition (c-Myc/Max (Homo sapiens) [14]): Active
growth inhibition (GI) [8]: Non-Toxic
growth inhibition (GI) [9]: Non-Toxic

O=C(NCCCCCN1C(=O)S/C(=C\c2ccc(F)cc2)C1=O)c1ccc(Nc2ccc([N+](=O)[O-])c3nonc23)cc1
Kd [1]: 3.6 nM
IC50 (HL-60): 6 to 10 µM
IC50 (Daudi): 6 to 7 µM

O=C1NC(=S)S/C1=C\c1ccc(C(=O)NCCCCCNC(=O)c2cccc(Nc3ccc([N+](=O)[O-])c4nonc34)c2)cc1
Activity [5]: inactive
Activity [6]: inactive
inhibition (c-Myc/Max (Homo sapiens) [7]): Active
growth inhibition (GI) [8]: Non-Toxic
growth inhibition (GI) [9]: Non-Toxic

O=C(CNC(=O)c1ccc(Nc2ccc([N+](=O)[O-])c3nonc23)cc1)NCCCCCNC(=O)c1ccc(/C=C2\SC(=S)NC2=O)cc1
Kd [1]: 320 nM
IC50 (HL-60): 7 to 13 µM
IC50 (Daudi): 7 to 11 µM
growth inhibition (GI) [8]: Non-Toxic
growth inhibition (GI) [9]: Non-Toxic

CCc1ccc(/C=C2\SC(=O)N(CCCCCNC(=O)c3cccc(Nc4ccc([N+](=O)[O-])c5nonc45)c3)C2=O)cc1
Kd [1]: 110 nM
Activity [5]: inactive
Activity [6]: inactive
inhibition (c-Myc/Max (Homo sapiens) [7]): Active
IC50 (HL-60): > 30 µM
IC50 (Daudi): > 10 µM
growth inhibition (GI) [8]: Non-Toxic
growth inhibition (GI) [9]: Non-Toxic

O=C1NC(=S)S/C1=C\c1ccc(C(=O)O)cc1
Kd [1]: 26000 nM

O=C1NC(=S)S/C1=C\c1ccc(C(=O)NCCCCCNC(=O)c2ccccc2Nc2ccc([N+](=O)[O-])c3nonc23)cc1
Kd [1]: 24 nM
Activity [5]: inactive
Kd [15]: 10 nM
Kd [16]: 122 nM
Activity [6]: inactive
inhibition (c-Myc/Max (Homo sapiens) [7]): Active
IC50 (HL-60): > 10 µM
growth inhibition (GI) [8]: Non-Toxic
growth inhibition (GI) [9]: Non-Toxic

CCc1ccc(/C=C2\SC(=O)N(CCCCCCNC(C)=O)C2=O)cc1
Kd [1]: 7000 nM
Activity [17]: Active

O=[N+]([O-])c1ccc(Nc2ccccc2-c2ccccc2)c2nonc12
inhibition [11]: Active
inhibition (c-Myc/Max (Homo sapiens) [14]): Active
growth inhibition (GI) [8]: Non-Toxic
growth inhibition (GI) [9]: Non-Toxic

O=C(NCCCCCN1C(=O)S/C(=C\c2ccc(F)cc2)C1=O)c1ccccc1Nc1ccc([N+](=O)[O-])c2nonc12
Kd [1]: 11 nM
IC50 (HL-60): 1.5 to 1.7 µM
IC50 (Daudi): 1 to 1.2 µM
inhibition [2]: Dose-dependent effect
inhibition [3]: inactive
Stability [4]: Unstable

CCc1ccc(/C=C2\SC(=O)N(CCCCCNC(=O)CCCCCNC(=O)c3ccc(Nc4ccc([N+](=O)[O-])c5nonc45)cc3)C2=O)cc1
Kd [1]: 5 nM

CCc1ccc(/C=C2\SC(=O)N(CCCCCNC(=O)CNC(=O)c3ccc(Nc4ccc([N+](=O)[O-])c5nonc45)cc3)C2=O)cc1
Kd [1]: 3.6 nM
IC50 (HL-60): 2 to 4 µM
IC50 (Daudi): 4 to 6 µM
growth inhibition (GI) [8]: Non-Toxic
growth inhibition (GI) [9]: Non-Toxic

CC(=O)NCCCCCOC(=O)c1ccc(Nc2ccc([N+](=O)[O-])c3nonc23)cc1
Kd [1]: 1700 nM
